# Source: ChEMBL document CHEMBL5149978, “Structural insights of oxindole based kinase inhibitors as anticancer agents: Recent advances” (Eur J Med Chem, 2021)
# How the values were obtained:
# HCT-116 [1] = assay: Antiproliferative against human HCT-116 cells assessed as reduction in cell proliferation incubated for 72 hrs by MTT assay; format: functional, cell-based; conditions: HCT-116, 72 h
# MDA-MB-231 [2] = assay: Anti-proliferative against human MDA-MB-231 cells by SRB colorimetric assay; format: functional, cell-based
# A549 [3] = assay: Anti-proliferative against human A549 cells by SRB colorimetric assay; format: functional, cell-based
# [4] = biological target: Apoptosis regulator Bcl-2 (Homo sapiens, UniProt P10415); assay: Inhibition of BCL2 (unknown origin)
# Sequence of Apoptosis regulator Bcl-2 (P10415 whole entry): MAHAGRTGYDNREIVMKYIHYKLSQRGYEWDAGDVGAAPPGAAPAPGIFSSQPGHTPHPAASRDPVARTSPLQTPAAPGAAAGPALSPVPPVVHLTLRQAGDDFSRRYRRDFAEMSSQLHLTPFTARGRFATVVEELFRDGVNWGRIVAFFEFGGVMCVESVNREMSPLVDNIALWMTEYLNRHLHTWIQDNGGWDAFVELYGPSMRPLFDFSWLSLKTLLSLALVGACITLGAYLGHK
# HCT-116 [5] = assay: Anti-proliferative against human HCT-116 cells by SRB colorimetric assay; format: functional, cell-based
# [6] = biological target: Cyclin-dependent kinase 2 (Homo sapiens, UniProt P24941); assay: Inhibition of CDK2 (unknown origin)
# MDA-MB-231 [7] = assay: Anti-proliferative activity against human MDA-MB-231 cells measured after 48 hrs by MTT assay; format: functional, cell-based; conditions: MDA-MB-231, 48 h
# [8] = biological target: Platelet-derived growth factor receptor beta (Homo sapiens, UniProt P09619); assay: Inhibition of PDGFR beta (unknown origin)
# Sequence of Platelet-derived growth factor receptor beta (P09619 whole entry): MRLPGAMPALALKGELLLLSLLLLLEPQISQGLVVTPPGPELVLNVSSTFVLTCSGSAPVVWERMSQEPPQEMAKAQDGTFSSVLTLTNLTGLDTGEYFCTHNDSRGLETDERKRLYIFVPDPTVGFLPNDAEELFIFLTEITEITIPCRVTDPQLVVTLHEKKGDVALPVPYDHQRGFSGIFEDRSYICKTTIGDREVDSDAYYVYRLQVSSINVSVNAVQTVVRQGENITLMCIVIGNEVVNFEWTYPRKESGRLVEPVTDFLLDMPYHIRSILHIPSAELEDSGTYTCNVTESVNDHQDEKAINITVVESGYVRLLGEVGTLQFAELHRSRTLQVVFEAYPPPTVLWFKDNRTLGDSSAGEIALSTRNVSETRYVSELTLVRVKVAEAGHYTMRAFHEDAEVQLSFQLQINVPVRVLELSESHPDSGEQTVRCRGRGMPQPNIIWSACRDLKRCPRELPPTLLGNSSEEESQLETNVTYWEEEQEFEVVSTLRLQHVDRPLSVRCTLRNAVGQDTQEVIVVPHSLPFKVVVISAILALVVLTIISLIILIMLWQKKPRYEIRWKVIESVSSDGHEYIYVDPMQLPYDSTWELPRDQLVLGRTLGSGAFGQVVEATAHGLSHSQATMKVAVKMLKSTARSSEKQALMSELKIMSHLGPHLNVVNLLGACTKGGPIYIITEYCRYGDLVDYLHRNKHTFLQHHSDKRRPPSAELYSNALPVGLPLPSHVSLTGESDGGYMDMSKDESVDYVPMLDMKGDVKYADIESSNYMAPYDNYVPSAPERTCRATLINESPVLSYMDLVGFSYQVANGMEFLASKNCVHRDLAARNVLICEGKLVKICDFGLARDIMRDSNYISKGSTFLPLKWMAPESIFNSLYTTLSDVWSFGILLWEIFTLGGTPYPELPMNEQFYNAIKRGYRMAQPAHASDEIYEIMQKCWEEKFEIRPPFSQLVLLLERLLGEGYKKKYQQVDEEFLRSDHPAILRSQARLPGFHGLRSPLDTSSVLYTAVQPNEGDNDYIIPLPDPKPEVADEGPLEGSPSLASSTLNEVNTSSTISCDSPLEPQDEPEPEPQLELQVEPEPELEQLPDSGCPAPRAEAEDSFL
# HeLa [9] = assay: Anti-proliferative against human HeLa cells incubated for 48 hrs by MTT assay; format: functional, cell-based
# SW-620 = assay: Anti-proliferative against human SW620 cells incubated for 48 hrs by MTT assay; format: functional, cell-based; conditions: SW-620, 48 h
# [10] = biological target: Serine/threonine-protein kinase pim-1 (Homo sapiens, UniProt P11309); assay: Inhibition of PIM1 (unknown origin)
# Sequence of Serine/threonine-protein kinase pim-1 (P11309 whole entry): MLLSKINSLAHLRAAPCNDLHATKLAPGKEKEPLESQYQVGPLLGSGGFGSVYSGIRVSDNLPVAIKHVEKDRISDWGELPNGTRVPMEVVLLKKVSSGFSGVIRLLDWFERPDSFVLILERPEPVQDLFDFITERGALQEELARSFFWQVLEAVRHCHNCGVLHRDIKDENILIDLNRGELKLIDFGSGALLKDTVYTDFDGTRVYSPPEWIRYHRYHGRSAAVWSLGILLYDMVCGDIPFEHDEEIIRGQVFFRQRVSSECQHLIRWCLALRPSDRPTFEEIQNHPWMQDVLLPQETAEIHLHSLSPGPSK
# A549 [11] = assay: Anti-proliferative against human A549 cells incubated for 48 hrs by MTT assay; format: functional, cell-based; conditions: A549, 48 h
# MCF7 [12] = assay: Anti-proliferative against human MCF-7 cells by MTT assay; format: functional, cell-based
# T47D = assay: Anti-proliferative against human T-47D cells by MTT assay; format: functional, cell-based
# HeLa [13] = assay: Cytotoxicity against human HeLa cells measured after 48 hrs by MTS assay; format: functional, cell-based
# [14] = Inhibition of tyrosine kinase receptor (unknown origin) by ELISA; parameters: species or system Homo sapiens
# MCF7 [15] = assay: Anti-proliferative against human MCF-7 cells by SRB colorimetric assay; format: functional, cell-based
structure (smiles),measurement,setting,value
CCN(CC)CCN1Cc2[nH]c(/C=C3\C(=O)Nc4ccc(Br)cc43)c(C)c2C1=O,IC50,HCT-116 [1],1.05 µM
O=C(N/N=C1\C(=O)N(Cc2ccc(F)cc2)c2ccccc21)c1cc2ccccc2[nH]1,IC50,MDA-MB-231 [2],1.03 µM
CCCn1cc(/C=N/N=C2\C(=O)Nc3ccc(C)cc32)c2ccccc21,IC50,MDA-MB-231 [2],4.7 µM
same,IC50,A549 [3],7.3 µM
same,IC50,[4],0.46 µM
same,IC50,HCT-116 [5],2.6 µM
same,IC50,[6],0.85 µM
N#CC1=C(c2ccccc2)Nc2c(c(-c3cccs3)nn2-c2ccccc2)C12C(=O)Nc1ccc(Cl)cc12 (stereo unspecified),IC50,MDA-MB-231 [7],6.4 µM
COc1ccc2c(c1)/C(=N\Nc1nnc3n1N=C(c1ccccc1)CS3)C(=O)N2,IC50,[8],0.371 µM
CCN(CC)CCN1Cc2[nH]c(/C=C3\C(=O)Nc4ccc(I)cc43)c(C)c2C1=O,IC50,HCT-116 [1],0.42 µM
O=C(/C=C1\C(=O)Nc2ccccc21)/C=C/c1ccc(F)cc1,IC50,HeLa [9],1.53 µM
same,IC50,SW-620,0.13 µM
same,IC50,[10],5 µM
same,IC50,A549 [11],2.02 µM
O=C1Nc2ccc(Br)cc2/C1=N/NC(=O)c1cc2cc(Br)ccc2o1,IC50,MCF7 [12],3.41 µM
same,IC50,T47D,3.82 µM
COc1cccc(C[S+]([O-])/C=C2\C(=O)Nc3ccccc32)c1 (stereo unspecified),IC50,HeLa [13],22.7 µM
same,IC50,[14],2.23 µM
COc1ccc2c(c1)/C(=N/NC(=O)c1cc3cc(Br)ccc3o1)C(=O)N2,IC50,MCF7 [12],2.27 µM
same,IC50,T47D,7.8 µM
O=C1Nc2ccccc2/C1=C/[S+]([O-])Cc1ccc(Br)cc1 (stereo unspecified),IC50,HeLa [13],24.1 µM
same,IC50,[14],1.34 µM
Cc1ccc2c(c1)/C(=N/NC(=O)c1cc3cc(Br)ccc3o1)C(=O)N2,IC50,MCF7 [12],3.45 µM
same,IC50,T47D,4.53 µM
Cc1ccc2c(c1)/C(=N/NC(=O)c1cc3ccccc3[nH]1)C(=O)N2,IC50,MCF7 [15],0.39 µM
N#CC1=C(c2ccccc2)Nc2c(c(-c3cccs3)nn2-c2ccccc2)C12C(=O)Nc1ccc(Br)cc12 (stereo unspecified),IC50,MDA-MB-231 [7],6.7 µM
